# Measurements published in patent publication US20150335670A1, “Medical applications of Notoginsenoside Fc” (SHANGHAI UNIVERSITY OF TRADITIONAL CHINESE MEDICINE, priority 2013, published 2015).
# Several values for one entry are separate records, joined by “and”; a condition that tells them apart may be missing. Identical values can stand only once.
# Experiments:
# platelet = assay: In vitro platelet aggregation assay (ADP-induced, nephelometry); format: cell-based, rat
# Description: 2.1.1 In vitro platelet aggregation assay: blood samples were placed in a centrifuge tube pre-coated with sodium citrate and centrifuged at 100 g for 5 min. The supernatant was collected and designated as rich platelet (PRP). After addition of prostacyclin (2 μg/ml), PRP was centrifuged at 700 g for 5 min and washed twice with 0.9% saline. The washed platelets were re-suspended in Tyrode buffer and diluted at a density of 4×10^8 cells/ml for further utilization. Platelet aggregation assay was provided according to a nephelometry method: platelet plasma was placed in cuvette; after addition of a inducing agent (ADP: 5-adenosine diphosphate disodium salt: 1×10^−4 mol/L), the platelet plasma was stirred with magnetic particles, wherein platelet was gradually aggregated, plasma turbidity was reduced, and transmittance was increased. Changes were recorded for drawing a dynamic curve of platelet aggregation. Aggregation rate and transmittance for PRP were regarded as 0; aggregation rate and transmittance of suspension were regarded as 100%. A platelet aggregation instrument was used for automatic measurement, recording, and drawing the platelet aggregation curve. For judging inhibiting or promoting of aggregation, it was mainly depending on whether synergy or antagonism happened with the inducing agent; wherein synergy was to promote platelet aggregation, antagonism was to inhibit platelet aggregation.
# Blank control group: 0.9% physiological saline (NS).
# Model group: adenosine diphosphate (ADP) (10 mM).
# Positive control group: clopidogrel (5 mM).
# Treatment groups: six rats for each group, Fc dissolved in double distilled water (prepared with different concentrations).
# platelet thrombus = assay: Whole animal thrombogenesis assay (extracorporeal circulation model, thrombus weight); format: in vivo, rat; conditions: rats, 8.1 mg/kg intravenous, extracorporeal circulation started 5 min later, 15 min, blank control 37.2 mg
# Source text: 2.1.2 Whole animal thrombogenesis assay: when arterial blood platelets contact a rough surface of a wire, the platelets are adhered to the wire and form platelet thrombus on a surface thereof. When platelet adhesion and aggregation function is suppressed, thrombus is light. Therefore, thrombus weight can measure platelet adhesion and aggregation functions.
# Referring to FIG. 3, effect of the notoginsenoside Fc on the platelet aggregation function is illustrated. […] In the extracorporeal circulation model, the rats were intravenous administered with Fc at dose of 8.1 mg/kg. Five minutes later, the extracorporeal circulation was initiated and stopped after fifteen minutes. The thrombus formed on the thread was weighed. Significant difference was found between the blank control group and the Fc treatment group (**P<0.01).
# rat tail bleeding = assay: Bleeding time assay (rat tail transection); format: in vivo; conditions: rats; vs control
# Source text: 2.1.3.1 Bleeding time assay: rat tail was transected 0.5 cm from the tip to induce bleeding. And the bleeding time was defined as the time from the start of transection to bleeding cessation. The time at which the flow of blood ceased for 30 s was considered as bleeding cessation.
# rat plasma = assay: Blood coagulation index APTT in rat plasma; format: biochemical
# Source text: (§1) 2.1.3.2 Four indexes of blood coagulation: i) Prothrombin time (PT) mainly reflects extrinsic coagulation conditions. Its value is increased when the levels of coagulation factor IX and XI in plasma are reduced, which usually occurs in hemophilia, hemophilia B and factor XI deficiency patients. Conversely, the reduction of it is seen in hypercoagulable state, when the procoagulant substances get into blood and the activity of coagulation factors is increased. ii) Activated partial thromboplastin time (APTT) reflects mainly intrinsic coagulation conditions. Its value is changed under the similar condition as PT. iii) Thrombin time (TT) mainly reflects the abnormality in the conversion of fibrinogen into fibrin. Its value is elevated in DIC hyperfibrinolysis period, afibrinogenemia and hemoglobin hyperlipidemia, and when degradation products (FDPs) of blood fibrin are increased. iv) Fibrinogen (Fibrinogen, FIB) mainly reflects the content of fibrinogen in plasma. Generally, its concentration is elevated in acute myocardial infarction. The reduction of it is observed in DIC dissolution of low consumption of coagulation, primary fibrinolysis, severe hepatitis, hepatic cirrhosis.
# standard human plasma = assay: Four indexes of blood coagulation (APTT, PT), human; format: biochemical; conditions: 80 μg/ml
# Source text: Notoginsenoside Fc (molecular weight 1211.38, HPLC purity≧99%, from Institute of Chinese Materia Medica), clopidogrel (molecular weight 419.90, HPLC purity≧98%, from National Institutes for Drug Control), standard human plasma, reagents for measurement of four indexes of blood coagulation (from Siemens, Germany), and adenosine diphosphate (ADP) (from Sigma, USA).
# as §1, with “Generally, its concentration is elevated in acute myocardial infarction. The reduction of it is observed in DIC dissolution of low consumption of coagulation, primary fibrinolysis, severe hepatitis, hepatic cirrhosis.” left out
# [1] = tested on: acute myocardial infarction in rats; assay: Acute myocardial infarction in rats (coronary ligation, TTC staining, pathohistology); format: in vivo, rat; conditions: for myocardial infarction area (ischemic area %): individual animals
# Description: Model preparing method: 30 SD rats (Shanghai University of Traditional Chinese Medicine Experimental Animal Center), weight: 320-370 g; rat was treated with anesthesia with pentobarbital (35 mg/kg), supine fixing; neck midline incision, separating trachea, tracheotomy, inserting a breathing tube, adjusting a frequency and tidal volume of a ventilator; median sternotomy thoracotomy (3-4 intercostal), using thin surgical needle and line six for starting at a left atrial appendage, and ligation at pulmonary cone. Successful standard thereof was that: observing with naked eyes (anterior descending artery blood supply area was darken or pale). Chest was quickly closed. For the sham group, the line passed the left anterior descending coronary artery bypass without ligation.
# TTC staining: rat hearts were frozen at −20° C., and were taken out after being hard; the rat hearts were left-coronally excised into 5-6 pieces at a thickness of 3-4 mm. Then the rat hearts were placed in 0.5% TTC solution, and incubated at 37° C. for 15 min. The pieces were taken out and fixed in 4% formaldehyde solution.
# The hearts were cut according to two different colors and drained water with filter paper before weighing. Calculation formula was as follows: ischemic area (%)=[…]×100%. Meanwhile, the hearts were partly acquired for pathological analysis.
# Control group: six rats, administered with 0.9% physiological saline (NS) after surgery.
# Sham operation group: six rats, opening chest and passing line without ligation.
# Positive medicine group: six rats, administered with ticagrelor (4.1 mg/kg) after surgery.
# 4 mg/kg Fc treatment group: six rats, administered with Fc (4 mg/kg) after surgery.
# 12 mg/kg Fc treatment group: six rats, administered with Fc (12 mg/kg) after surgery.
smiles,measurement,setting,value
"CC(C)=CCC[C@](C)(O[C@@H]1O[C@H](CO[C@@H]2OC[C@@H](O)[C@H](O)[C@H]2O)[C@@H](O)[C@H](O)[C@H]1O)[C@H]1CC[C@]2(C)[C@@H]1[C@H](O)C[C@@H]1[C@@]3(C)CC[C@H](O[C@@H]4O[C@H](CO)[C@@H](O)[C@H](O)[C@H]4O[C@@H]4O[C@H](CO)[C@@H](O)[C@H](O)[C@H]4O[C@@H]4OC[C@@H](O)[C@H](O)[C@H]4O)C(C)(C)[C@@H]3CC[C@]12C [Notoginsenoside Fc, notoginsenoside Fc]",IC50,"platelet; ADP-induced, 0.1-40 μM, read-out: IC50 (inhibition of platelet aggregation)",13.5 µM
same,platelet aggregation rate,"platelet; ADP-induced, Fc 200 μM",25.8%
same,aggregation rate (%),"platelet; ADP-induced, dose 0.1 μM, listed as Fc",47.9%
same,aggregation rate (%),"platelet; ADP-induced, dose 0.1 μM, listed as notoginsenoside Fc",47.98%
same,aggregation rate (%),"platelet; ADP-induced, dose 10 μM",42.83%
same,aggregation rate (%),"platelet; ADP-induced, dose 20 μM",32.33%
same,aggregation rate (%),"platelet; ADP-induced, dose 30 μM",31.60%
same,aggregation rate (%),"platelet; ADP-induced, dose 40 μM, listed as Fc",28.1%
same,aggregation rate (%),"platelet; ADP-induced, dose 40 μM, listed as notoginsenoside Fc",28.13%
same,decreasing amplitude of platelet aggregation rate,platelet; from 0.1 μM to 40 μM,up to 19.8%
same,weight of thrombus (wet weight),platelet thrombus; listed as FC,28.2 mg
same,weight of thrombus (wet weight),platelet thrombus; listed as Fc,actively reduce thrombogenesis
same,rat tail bleeding time,rat tail bleeding,significantly prolonged
same,APTT Time,rat plasma; 5 μg/ml,19.20 s
same,APTT Time,"rat plasma; 5 μg/ml, listed as Fc",19 s
same,APTT Time,rat plasma; 10 μg/ml,20.31 s
same,APTT Time,rat plasma; 20 μg/ml,21.61 s
same,APTT Time,rat plasma; 80 μg/ml,28.25 s
same,APTT Time,rat plasma; 160 μg/ml,32.65 s
same,APTT Time,"rat plasma; 160 μg/ml, listed as Fc",32 s
same,difference in APTT,rat plasma; from 5 μg/ml to 160 μg/ml,13 s
same,APTT,standard human plasma; blank control 91 s,126 s
same,PT,standard human plasma; vs blank control,longer
same,myocardial infarction area (ischemic area %),[1]; Fc 4 mg/kg after surgery,17.27% and 22.31% and 22.8% and 19.05% and 19.74% and 16.88%
same,pathohistology of myocardium,"[1]; Fc 4 mg/kg, FIG. 12",arrangement of most of the myocardial cells was normal
same,myocardial infarction area (ischemic area %),[1]; Fc 12 mg/kg after surgery,reduced more myocardial infarction than the positive medicine group and 5.843% and 3.482% and 5.463% and 4.892% and 5.19% and 4.595%
same,pathohistology of myocardium,"[1]; Fc 12 mg/kg, FIG. 13",arrangement of the myocardial cells was almost normal
same,percentage of the infarcted area,"[1]; Fc 4 and 12 mg/kg, FIG. 8, vs control",significantly reduced
"CCCSc1nc(N[C@@H]2C[C@H]2c2ccc(F)c(F)c2)c2nnn([C@@H]3C[C@H](OCCO)[C@@H](O)[C@H]3O)c2n1 [ticagrelor, reference compound]",myocardial infarction area (ischemic area %),[1]; ticagrelor 4.1 mg/kg after surgery,15.15% and 17% and 13.85% and 14.24% and 16.69% and 16.94%
same,pathohistology of myocardium,"[1]; ticagrelor 4.1 mg/kg, FIG. 11",arrangement of myocardial cells was disordered in local area
